This note sets out measurements from PubChem BioAssay AID1411 (The Scripps Research Institute Molecular Screening Center, 2008).

The source made the active and inactive calls. The rule behind the calls is not given here.

In the assay the target is Signal transducer and activator of transcription 1-alpha/beta (Homo sapiens) (UniProt P42224). Briefly: STAT1 transcription blockade – cell-based, NIH 3T3, luciferase reporter, counter-screen for STAT3 inhibitor project, dose response (AID 1411). The note with it: NIH 3T3 fibroblasts, counterscreen. (In general: In a reporter assay the amount or activity of a reporter protein is the signal.)
Sequence of Signal transducer and activator of transcription 1-alpha/beta (Homo sapiens) (P42224 whole entry, looked up): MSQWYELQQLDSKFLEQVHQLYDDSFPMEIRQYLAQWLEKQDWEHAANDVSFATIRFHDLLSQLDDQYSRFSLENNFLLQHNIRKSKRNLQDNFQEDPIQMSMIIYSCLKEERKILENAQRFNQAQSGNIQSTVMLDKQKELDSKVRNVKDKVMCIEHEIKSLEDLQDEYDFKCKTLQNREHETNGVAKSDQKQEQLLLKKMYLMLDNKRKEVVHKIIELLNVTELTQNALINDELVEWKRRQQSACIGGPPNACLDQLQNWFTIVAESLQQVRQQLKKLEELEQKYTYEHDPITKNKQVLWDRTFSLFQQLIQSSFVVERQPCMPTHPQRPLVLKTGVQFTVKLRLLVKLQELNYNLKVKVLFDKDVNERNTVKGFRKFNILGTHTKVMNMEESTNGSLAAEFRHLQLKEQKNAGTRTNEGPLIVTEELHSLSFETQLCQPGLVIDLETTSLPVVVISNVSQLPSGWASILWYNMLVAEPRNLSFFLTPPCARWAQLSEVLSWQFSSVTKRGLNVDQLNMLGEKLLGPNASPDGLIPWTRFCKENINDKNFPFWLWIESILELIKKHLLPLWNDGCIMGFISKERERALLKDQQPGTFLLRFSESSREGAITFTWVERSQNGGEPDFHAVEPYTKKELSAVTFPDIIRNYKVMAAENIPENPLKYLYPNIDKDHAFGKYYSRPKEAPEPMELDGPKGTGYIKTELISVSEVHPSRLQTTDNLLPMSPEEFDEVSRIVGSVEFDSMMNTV
One may read the IC50 as the midpoint of a concentration-inhibition curve. In the case of `CCOC(=O)c1ccc(NC(=O)c2ccc(CN3CCOCC3)cc2)cc1`, the IC50 was > 55.7 µM (inactive).

Take `COc1ccc(/C=N/NC(=S)Nc2ccccc2[N+](=O)[O-])cc1O`: the IC50 is > 55.7 µM (inactive).

Consider `O=C(Nc1ccc(N2CCOCC2)nc1)c1ccc(C(F)(F)F)cc1`, for which the IC50 is > 55.7 µM (inactive).

`Cc1ccccc1OCCCCn1cnc2ccccc21`: the IC50 is > 55.7 µM (inactive).

Take `CC(=O)c1cn(CC(=O)Nc2ccccc2C)c2ccccc12`: the IC50 was > 55.7 µM (inactive).

On to `COc1ccc(CC(=O)Nc2cccc(SC)c2)cc1OC`, for which the IC50 is > 55.7 µM (inactive).

As to `CCOC(=O)Cc1csc(SCC(=O)c2c(N)n(CC(C)C)c(=O)n(C)c2=O)n1`, the IC50 was > 55.7 µM (inactive).

Turning to `Cc1ccc(S(=O)(=O)N(C)c2ccc(C(=O)N3CCN(Cc4ccc5c(c4)OCO5)CC3)cc2)cc1`, the IC50 was > 55.7 µM (inactive).

On to `CCC(C)NC(=S)Nc1ccc(C(=O)OC)cc1` (stereo unspecified), for which the IC50 was > 55.7 µM (inactive).

With `Clc1ccc(OCc2cc(-c3ccccc3)no2)c(Cl)c1`, the IC50 entry is “inactive”.

Consider `O=c1c2c(nc3n1CCCCC3)sc1c(O)cccc12`, for which the IC50 was > 55.7 µM (inactive).

With `COc1cc(OC)cc(C(=O)Nc2nnc(NC(=S)Nc3ccccc3)s2)c1`, the IC50 was > 55.7 µM (inactive).

For `Cc1cccc(C)c1NC(=O)N1CCN(c2nc3ccccc3s2)CC1`, the IC50 is > 55.7 µM (inactive).

Take `O=C(Oc1cccc(Nc2ncnc3ccccc23)c1)c1ccccc1Cl`: the IC50 is > 55.7 µM (inactive).

With `Nc1cc(-c2ccccc2)nn1Cc1ccc(Cl)cc1`, the IC50 was > 55.7 µM (inactive).

With `CNc1ccccc1C(C)(C)c1cc(-c2ccc(F)cc2)no1`, the IC50 was > 55.7 µM (inactive).

Consider `COC(=O)Oc1ccc(/C=N/NC(=O)CSCc2ccccc2Br)cc1OC`, for which the IC50 was > 55.7 µM (inactive).

For `O=C1C2C3c4ccccc4C(c4ccccc43)C2c2nc3ccccc3n21` (stereo unspecified), the IC50 is > 55.7 µM (inactive).

With `O=C(Nc1ccn(Cc2ccccc2F)n1)c1ccc(COc2ccc(Br)cc2)cc1`, the IC50 was > 55.7 µM (inactive).

Consider `CC[n+]1ccccc1/C=C/c1ccc(N(C)C)cc1`, for which the IC50 was > 55.7 µM (inactive).

Consider `O=C(Nc1ccc(N2CCN(C(=O)c3ccco3)CC2)c(Cl)c1)c1cc2ccccc2o1`, for which the IC50 entry is “inactive”.

Regarding `NC(=O)C1CCN(c2ccc(S(=O)(=O)N3CCC(Cc4ccccc4)CC3)cn2)CC1`, the IC50 is > 55.7 µM (inactive).

In the case of `O=C(Oc1ccccc1N1C(=O)C2CCCCC2C1=O)c1ccccc1` (stereo unspecified), the IC50 is > 55.7 µM (inactive).

Take `Cc1cc(OCC(=O)Nc2ccncc2)ccc1Br`: the IC50 was > 55.7 µM (inactive).

`O=C(Nc1ccc(Oc2ccccc2)cc1)C1CCN(c2c3c(nc4ncnn24)CCC3)CC1`: the IC50 is > 55.7 µM (inactive).

Take `Cc1ccc(-n2nnnc2SCn2nnc3ccccc3c2=O)c(C)c1`: the IC50 was > 55.7 µM (inactive).

Regarding `C[C@H]1O[C@@H](O[C@H]2[C@@H](O)C[C@H](O[C@H]3[C@@H](O)C[C@H](O[C@H]4CC[C@@]5(C)[C@H](CC[C@@H]6[C@@H]5CC[C@]5(C)[C@@H](C7=CC(=O)OC7)CC[C@]65O)C4)O[C@@H]3C)O[C@@H]2C)C[C@H](O)[C@@H]1O`, the IC50 was > 55.7 µM (inactive).

On to `CCOC(=O)c1sc2nc(CC(=O)OC)nc(NCc3ccc(Cl)cc3)c2c1C`, for which the IC50 is > 55.7 µM (inactive).

Consider `Cc1cccc(-c2nc3cc(NC(=O)C4CCCO4)ccc3o2)c1` (stereo unspecified), for which the IC50 result was “inactive”.

Turning to `CC(=O)Nc1ccc(-c2csc(Nc3ccc(Cl)cn3)n2)cc1`, the IC50 was > 55.7 µM (inactive).

Consider `O=C1c2ccc(Br)cc2C(=O)N1c1ccc(Cc2ccncc2)cc1`, for which the IC50 is > 55.7 µM (inactive).
